Assay results taken from US7241893B2, “Thiazolinone 2-substituted quinolines” (Hoffman-La Roche Inc., priority 2004, dated 2007).

What follows are compounds tested against T1, recombinant human CDK1/Cyclin B complex (Homo sapiens, UniProt P06493) (assay: CDK1/Cyclin B kinase assay (FlashPlate or HTRF)). Conditions: Rb protein substrate, Ki=IC50/(1+[S]/Km).
T1 construct: made in house; host or cells: High Five insect cells (baculovirus) for CDK1/GST-cyclin B; E. coli M15 for the Rb substrate
T1 sequence (P06493 whole entry): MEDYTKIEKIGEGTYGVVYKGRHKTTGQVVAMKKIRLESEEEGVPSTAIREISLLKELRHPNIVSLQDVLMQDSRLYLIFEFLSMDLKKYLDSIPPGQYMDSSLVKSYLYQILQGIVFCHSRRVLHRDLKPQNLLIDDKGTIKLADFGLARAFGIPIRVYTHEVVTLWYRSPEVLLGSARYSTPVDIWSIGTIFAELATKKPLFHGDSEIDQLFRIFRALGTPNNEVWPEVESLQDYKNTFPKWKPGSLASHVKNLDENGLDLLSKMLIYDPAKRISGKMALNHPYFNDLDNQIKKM
T1 sequence (P14635 whole entry partner): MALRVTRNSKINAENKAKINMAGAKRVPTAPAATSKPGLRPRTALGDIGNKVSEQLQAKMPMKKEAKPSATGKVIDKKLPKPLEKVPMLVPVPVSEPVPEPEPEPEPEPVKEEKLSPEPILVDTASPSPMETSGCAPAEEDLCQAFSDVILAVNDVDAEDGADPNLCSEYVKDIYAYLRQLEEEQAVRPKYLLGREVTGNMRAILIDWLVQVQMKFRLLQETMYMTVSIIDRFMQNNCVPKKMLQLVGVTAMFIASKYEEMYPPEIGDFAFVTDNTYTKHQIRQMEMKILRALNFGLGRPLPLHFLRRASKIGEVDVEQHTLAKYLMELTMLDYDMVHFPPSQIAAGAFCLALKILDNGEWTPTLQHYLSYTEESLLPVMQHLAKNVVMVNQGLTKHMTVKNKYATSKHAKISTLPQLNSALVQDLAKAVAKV
Type: biochemical
Description: To determine inhibition of CDK1 activity, either FlashPlate™ (NEN™-Life Science Products) assay or HTRF assay was performed. Both types of kinase assays were carried out using recombinant human CDK1/Cyclin B complex. GST-cyclinB (GST-cycB) and CDK1 cDNA clones in baculovirus vectors were provided by Dr. W. Harper at the Baylor College of Medicine, Houston, Tex. Proteins were co-expressed in High Five™ insect cells and the complex was purified on glutathione Sepharose resin (Pharmacia, Piscataway, N.J.) as previously described (Harper, J. W. et al. Cell 1993, 75, 805–816). A 6x-Histidine tagged truncated form of retinoblastoma (Rb) protein (amino acid 386–928) was used as the substrate for the CDK1/Cyclin B assay (the expression plasmid was provided by Dr. Veronica Sullivan, Department of Molecular Virology, Roche Research Centre, Welwyn Garden City, United Kingdom). The Rb protein is a natural substrate for phosphorylation by CDK1 (see Herwig and Strauss Eur. J. Biochem. Vol. 246 (1997) pp. 581–601 and the references cited therein). The expression of the 62 Kd protein was under the control of an IPTG inducible promoter in an M15 E. coli strain. Cells were lysed by sonication and purification was carried out by binding lysates at pH 8.0 to a Ni-chelated agarose column pretreated with 1 mM imidazole. The resin was then washed several times with incrementally decreasing pH buffers to pH 6.0, and eluted with 500 mM imidazole. Eluted protein was dialysed against 20 mM HEPES pH 7.5, 30% glycerol, 200 mM NaCl, and 1 mM DTT. Purified Rb fusion protein stocks were quantitated for protein concentration, aliquoted, and stored at −70° C.
For the FlashPlate kinase assay, 96-well FlashPlates were coated with Rb protein at 10 μg/ml, using 100 μl per well. Plates were incubated at 4° C. overnight or at room temperature for 3 hours on a shaker. To control for nonspecific phosphorylation, one row of wells was coated with 100 μl/well coating buffer (20 mM HEPES, 0.2 M NaCl). Plates were then washed twice with wash buffer (0.01% Tween 20 in phosphate-buffered saline). Compounds to be tested (“test compounds”) were added to the wells at 5× final concentration. Reactions were initiated by immediate addition of 40 μl reaction mix (25 mM HEPES, 20 mM MgCl2, 0.002% Tween 20, 2 mM DTT, 1 [M ATP, 4 nM 33P-ATP) and a sufficient amount of enzyme to give counts that were at least 10-fold above background. Plates were incubated at room temperature on a shaker for 30 minutes. Plates were washed four times with the wash buffer, sealed, and counted on the TopCount scintillation counter (Packard Instrument Co., Downers Grove, Ill.]. The percent inhibition of Rb phosphorylation, which is a measure of the inhibition of CDK activity, was determined according to the following formula:
[formula] where “test compound” refers to the average counts per minute of the test duplicates, “nonspecific” refers to the average counts per minute when no CDK1/Cyclin B, etc., was added, and “total” refers to the average counts per minute when no compound was added. […] The value of the inhibitor constant Ki is calculated by the following: Ki=IC50/(1+[S]/Km), where [S] is the ATP concentration and Km is Michaelis constant.
The Homogeneous Time Resolved Fluorescence (HTRF) kinase assay was carried out in 96-well polypropylene plates (BD Biosciences, Bedford, Mass.). […]
Nc1ccc2cc(/C=C3\SC(N[C@@H]4C[C@H]4c4ccccc4)=NC3=O)ccc2n1 [Example 1, 5-[1-(2-Amino-quinolin-6-yl)-meth-(Z)-ylidene]-2-((1R,2S)-2-phenyl-cyclopropylamino)-thiazol-4-one; compound with trifluoro-acetic acid] was tested, and the Ki was 0.023 µM.
With CCOc1cc(N)nc2ccc(/C=C3\SC(N)=NC3=O)cc12 [Example 3, 2-Amino-5-(2-amino-4-ethoxy-quinolin-6-ylmethylene)-thiazol-4-one] the Ki was 0.03 µM.
For CCOc1cc(NC(C)=O)nc2ccc(/C=C3\SC(NC4CC4)=NC3=O)cc12 [Example 5, N-[6-(2-Cyclopropylamino-4-oxo-4H-thiazol-5-ylidenemethyl)-4-ethoxy-quinolin-2-yl]-acetamide], the Ki was 0.085 µM.
With CCOc1cc(NC(C)=O)nc2ccc(/C=C3\SC(N)=NC3=O)cc12 [Example 7, N-(6-{2-Amino-4-oxo-4H-thiazol-5-ylidenemethyl}-4-ethoxy-quinolin-2-yl)-acetamide] the Ki was 0.097 µM.
CCOc1cc(NC(C)=O)nc2ccc(/C=C3\SC(NCC4COCCO4)=NC3=O)cc12 (centres unmarked) [Example 9] was tested, and the Ki was 3.24 µM.
